Results from ChEMBL document CHEMBL1201862, “PubChem BioAssay data set” (2004).
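These data come from cells grown in 96-well plates and exposed to compound for 48 hours at five concentrations. GI50: concentration for 50% inhibition of growth.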 The source made the active and inactive calls. Cut-off read from the data, not from the text of the source: active = GI50 up to about 1.1 µM and inactive = higher.

How the values were obtained:
Assay in all cases: DTP human tumour cell line panel, 48 h
[1] = system: 786-0
[2] = system: A498
[3] = system: A549
[4] = system: ACHN
[5] = system: BT-549
[6] = system: CAKI-1
[7] = system: CCRF-CEM
[8] = system: COLO 205
[9] = system: DU-145
[10] = system: EKVX
[11] = system: HCC 2998
[12] = system: HCT-116
[13] = system: HCT-15
[14] = system: HOP-62
[15] = system: HOP-92
[16] = system: HT-29
[17] = system: Hs-578T
[18] = system: IGROV-1
[19] = system: K562
[20] = system: KM12
[21] = system: LOX IMVI
[22] = system: M14
[23] = system: MDA-MB-231
[24] = system: MDA-MB-435
[25] = system: MDA-N
[26] = system: MOLT-4
[27] = system: Malme-3M
[28] = system: NCI-H226
[29] = system: NCI-H23
[30] = system: NCI-H460
[31] = system: NCI-H522
[32] = system: NCI/ADR-RES
[33] = system: OVCAR-3
[34] = system: OVCAR-4
[35] = system: OVCAR-5
[36] = system: OVCAR-8
[37] = system: PC-3
[38] = system: RPMI-8226
[39] = system: RXF 393
[40] = system: SF-268
[41] = system: SF-295
[42] = system: SK-MEL-28
[43] = system: SK-MEL-2
[44] = system: SK-MEL-5
[45] = system: SK-OV-3
[46] = system: SN12C
[47] = system: SNB-19
[48] = system: SNB-75
[49] = system: SW-620
[50] = system: T47D
[51] = system: TK-10
[52] = system: U-251
[53] = system: UACC-257
[54] = system: UACC-62
[55] = system: UO-31
[56] = system: HL-60
[57] = system: SF-539
[58] = system: SR

## C=C1[C@@H](OC(C)=O)/C=C/C2C3C(=O)[C@@](C)(OC(C)=O)[C@H]([C@H](OC(C)=O)[C@]4(O)[C@@H](C)C(=O)O[C@H]4[C@H]1Cl)[C@@]23C (stereo not given in full)
[1]
  GI50: > 100 µM (inactive)
[2]
  GI50: > 100 µM (inactive)
[3]
  GI50: > 100 µM (inactive)
[4]
  GI50: > 100 µM (inactive)
[5]
  GI50: > 100 µM (inactive)
[6]
  GI50: > 100 µM (inactive)
[7]
  GI50: > 100 µM (inactive)
[8]
  GI50: > 100 µM (inactive)
[9]
  GI50: > 100 µM (inactive)
[10]
  GI50: > 100 µM (inactive)
[11]
  GI50: > 100 µM (inactive)
[12]
  GI50: > 100 µM (inactive)
[13]
  GI50: > 100 µM
[14]
  GI50: > 100 µM (inactive)
[15]
  GI50: > 100 µM (inactive)
[16]
  GI50: > 100 µM (inactive)
[17]
  GI50: > 100 µM (inactive)
[18]
  GI50: > 100 µM (inactive)
[19]
  GI50: > 100 µM (inactive)
[20]
  GI50: > 100 µM (inactive)
[21]
  GI50: > 100 µM (inactive)
[22]
  GI50: > 100 µM (inactive)
[23]
  GI50: > 100 µM (inactive)
[24]
  GI50: > 100 µM (inactive)
[25]
  GI50: > 100 µM (inactive)
[26]
  GI50: > 100 µM (inactive)
[27]
  GI50: > 100 µM (inactive)
[28]
  GI50: > 100 µM (inactive)
[29]
  GI50: > 100 µM (inactive)
[30]
  GI50: > 100 µM (inactive)
[31]
  GI50: > 100 µM (inactive)
[32]
  GI50: > 100 µM (inactive)
[33]
  GI50: > 100 µM (inactive)
[34]
  GI50: > 100 µM (inactive)
[35]
  GI50: > 100 µM (inactive)
[36]
  GI50: > 100 µM (inactive)
[37]
  GI50: > 100 µM (inactive)
[38]
  GI50: > 100 µM (inactive)
[39]
  GI50: > 100 µM (inactive)
[40]
  GI50: > 100 µM (inactive)
[41]
  GI50: > 100 µM (inactive)
[42]
  GI50: > 100 µM (inactive)
[43]
  GI50: > 100 µM (inactive)
[44]
  GI50: > 100 µM (inactive)
[45]
  GI50: > 100 µM (inactive)
[46]
  GI50: > 100 µM (inactive)
[47]
  GI50: > 100 µM (inactive)
[48]
  GI50: > 100 µM (inactive)
[49]
  GI50: > 100 µM (inactive)
[50]
  GI50: > 100 µM (inactive)
[51]
  GI50: > 100 µM (inactive)
[52]
  GI50: > 100 µM (inactive)
[53]
  GI50: > 100 µM (inactive)
[54]
  GI50: > 100 µM (inactive)
[55]
  GI50: > 100 µM (inactive)

## Cc1nn(C(=O)c2ccccc2O)c2c1C(c1ccco1)SC(=N)N2 (stereo not given)
[1]
  GI50: 7.01 µM (inactive)
[2]
  GI50: 6.07 µM (inactive)
[3]
  GI50: 4.43 µM (inactive)
[4]
  GI50: 3.42 µM (inactive)
[5]
  GI50: > 10 µM (inactive)
[6]
  GI50: 3.48 µM (inactive)
[7]
  GI50: 2.95 µM (inactive)
[8]
  GI50: 5.83 µM (inactive)
[9]
  GI50: 3.63 µM (inactive)
[10]
  GI50: > 10 µM (inactive)
[12]
  GI50: 3.34 µM (inactive)
[13]
  GI50: 3.53 µM
[56]
  GI50: 4.94 µM (inactive)
[14]
  GI50: 2.58 µM (inactive)
[15]
  GI50: 4.59 µM (inactive)
[16]
  GI50: > 10 µM (inactive)
[17]
  GI50: 6.92 µM (inactive)
[18]
  GI50: 4.42 µM (inactive)
[19]
  GI50: 2.93 µM (inactive)
[20]
  GI50: 5.47 µM (inactive)
[21]
  GI50: 3.73 µM (inactive)
[22]
  GI50: 3.5 µM (inactive)
[23]
  GI50: 5.79 µM (inactive)
[24]
  GI50: 7.29 µM (inactive)
[25]
  GI50: 7.4 µM (inactive)
[26]
  GI50: 3.61 µM (inactive)
[27]
  GI50: > 10 µM (inactive)
[28]
  GI50: 3.43 µM (inactive)
[29]
  GI50: > 10 µM (inactive)
[30]
  GI50: 4.32 µM (inactive)
[32]
  GI50: 3.22 µM (inactive)
[33]
  GI50: 3.32 µM (inactive)
[34]
  GI50: 3.04 µM (inactive)
[35]
  GI50: > 10 µM (inactive)
[36]
  GI50: 3.61 µM (inactive)
[37]
  GI50: 3.73 µM (inactive)
[38]
  GI50: 4.43 µM (inactive)
[39]
  GI50: 7.1 µM (inactive)
[40]
  GI50: 4.09 µM (inactive)
[41]
  GI50: > 10 µM (inactive)
[57]
  GI50: 4.28 µM (inactive)
[42]
  GI50: 6.41 µM (inactive)
[43]
  GI50: > 10 µM (inactive)
[45]
  GI50: 3.3 µM (inactive)
[46]
  GI50: 5.93 µM (inactive)
[47]
  GI50: > 10 µM (inactive)
[48]
  GI50: 1.45 µM (inactive)
[58]
  GI50: 4.9 µM (inactive)
[49]
  GI50: 5.24 µM (inactive)
[50]
  GI50: 4.83 µM (inactive)
[51]
  GI50: > 10 µM (inactive)
[52]
  GI50: 5.28 µM (inactive)
[53]
  GI50: 9.89 µM (inactive)
[54]
  GI50: 2.13 µM (inactive)
[55]
  GI50: 5.6 µM (inactive)
